Laboratory results taken from patent US12208227B2, “Precision bio-chemotronic system” (THE REGENTS OF THE UNIVERSITY OF MICHIGAN, priority 2017, dated 2025).
Values after ≈ are worked out from the molar mass of the structure shown.

Assays:
[1] = Intrinsic dissolution rate, rotating disk dissolution apparatus; format: physicochemical; details: films comparable to compressed pellets, 100 rpm, 10 ml, 20±1° C.
Excerpt: (§2) Drug dissolution was monitored by in-situ UV-VIS Ocean Optics USB+2000 spectrometer with T300-UV-VIS transmission dip probe, with a 10 mm optical path.
Dissolution Rate Measurement
(§3) For dissolution from film, the glass substrate with printed film was attached to rotating rod with substrate holder. In case of compressed powder pellet, 1.57 mm diameter pellet was compressed at 50±2 psi for approximately 10 seconds into a holder having same size as disk substrate holder. […] In all cases the same vessel and solution volume of 10 ml was used. Testing temperature was room temperature−20±1° C. Sink conditions were defined as C<5Cs.
To measure dissolution kinetics, a rotating disk dissolution apparatus (see FIG. 30 for details) was used with rotational speed of 100 rpm. Concentration was monitored using a UV-VIS spectrometer equipped with a dip probe. The compounds were tested both in powder form (compressed into pellets for rotating disk dissolution) and in film form. […]
[formula] where m is the dissolved solute mass, and (dm/dt)max is the maximum slope in the dissolution curve that plots the amount of dissolved material versus time, typically evaluated at the start of dissolution process, where the concentration driving force is highest. […]

[2] = Dissolution of printed films versus original loose powders; format: physicochemical
Excerpt: as §2, §3
As-received API powders having the same weight as the films were introduced into 10 ml solutions without any prior treatment, and stirred using a rotation rod with the same shape and diameter as the one used for film dissolution.

physchem = details: 20 °C, pH 1.2, simulated gastric fluid, thermodynamic from solid
Method: Solubility tests were performed at ambient temperature (20±1° C.). Solutions with excess concentration (at least 100 μg/ml of solid) were shaken at approximately 1,000 rpm for 48 hours, followed by solution filtration with 0.4 μm filter after 24 hrs. Filtered solutions concentrations were then measured using UV-VIS spectrometry, calibrated with known solutions concentrations. Five different concentrations for calibration were used in each test.
Solution volume remained constant in all experiments, 10 ml, and temperature was 20±1° C.

[3] = tested on: MCF7 cells (breast carcinoma); experiment: Cancer cell growth/viability, live cell counts by trypan blue exclusion; format: cell-based
Method: (§1) The cells were plated onto 12-well tissue culture dishes, and allowed to adhere and grow for 24 hours in 2.5 ml of 10% fetal bovine serum-supplemented growth medium. […] Slides were removed following this initial period, and live cell counts were determined using trypan blue exclusion using a hemocytometer at 1, 4, 8, 12, 24 and 48 hours following film treatment. At least 3 samples were tested at each time point.

[4] = tested on: OVCAR3 cells (ovarian carcinoma); experiment: as above; format: cell-based
Method: as §1

[5] = film form, nominal 5 μM (4.5 μg per film)
[6] = powder form in growth medium, nominal 5 μM

## CC(C)Cc1ccc(C(C)C(=O)O)cc1 (stereo not drawn) [ibuprofen]
[1]; aqueous HCl buffer pH 1.2
  intrinsic dissolution rate (IDR): 1·10^−3±3·10^−4 μg sec^−1 mm^−2
[2]; aqueous HCl buffer pH 1.2, 70 μg weight, 10 ml
  enhancement of initial dissolution rate, film-form versus loose powder: thirty-fold
physchem
  solubility at 48 h: 22.5 ± 0.5 µg/mL (≈ 109 µM)

## Cn1c(=O)c2c(ncn2C)n(C)c1=O [Caffeine]
[2]; film form
  dissolution in the film form (qualitative): instantaneous dissolution

## CC/C(=C(\c1ccccc1)c1ccc(OCCN(C)C)cc1)c1ccccc1 [tamoxifen]
[1]; aqueous acetate buffer pH 4.9
  intrinsic dissolution rate (IDR): 6.10^−4±1·10^−4 μg sec^−1 mm^−2
[3]; [5]
  cancer cells' viability after 48 hours: 58%
[3]; [6]
  cancer cells' viability after 48 hours: 79%
[4]; [5]
  cancer cells' viability after 48 hours: 44%
[4]; [6]
  cancer cells' viability after 48 hours: 68%
